Test [1] deals with T1, Phospho-N-acetylmuramoyl-pentapeptide-transferase (Staphylococcus aureus, UniProt P0C1R8).
T1 sequence (P0C1R8 whole entry): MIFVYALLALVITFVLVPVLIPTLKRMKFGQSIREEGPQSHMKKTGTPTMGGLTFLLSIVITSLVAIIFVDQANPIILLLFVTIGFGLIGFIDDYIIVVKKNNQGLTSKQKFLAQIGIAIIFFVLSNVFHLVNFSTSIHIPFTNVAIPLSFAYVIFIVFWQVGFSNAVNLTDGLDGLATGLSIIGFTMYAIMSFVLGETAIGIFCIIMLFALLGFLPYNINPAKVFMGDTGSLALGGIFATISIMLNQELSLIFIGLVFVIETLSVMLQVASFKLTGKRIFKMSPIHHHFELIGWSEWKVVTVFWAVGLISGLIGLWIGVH
The test is described as follows: Inhibition of Staphylococcus aureus MraY assessed as reduction of dansylated lipid I formation using UDP-MurNAc-dansylpentapeptide as substrate incubated for 3 to 4 hrs by fluorescence based analysis.

In test [2] the test system is Mycobacterium tuberculosis. In words: Antibacterial activity against Mycobacterium tuberculosis H37Rv incubated for 14 days measured by microplate reader method. It is filed as functional. The following applies: 336 h, time 14 day.
The test system of test [3] is Mycolicibacterium smegmatis. In words: Antibacterial activity against Mycobacterium smegmatis mc2 155 incubated for 4 days measured by microplate reader method. It is filed as functional. The following applies: mc2 155, 96 h, time 4 day.
Test [4] is described as follows: Antibacterial activity against Mycobacterium avium subsp. avium ATCC 25291 incubated for 11 days measured by microplate reader method. The following applies: ATCC 25291, 264 h, time 11 day. It is filed as functional.
Test [5] in a line: Antibacterial activity against Mycobacterium abscessus subsp. abscessus ATCC 19977 incubated for 5 days measured by microplate reader method. It is filed as functional. The following applies: Mycobacteroides abscessus, ATCC 19977, 120 h; time 5 day.
Test [6] can be described thus: Inhibition of bacterial MraY. On the set-up: species or system Bacteria.
The test system of test [7] is Mycolicibacterium smegmatis. The test is described as follows: Antibacterial activity against Mycobacterium smegmatis. It is filed as functional.

Converted amounts (≈) assume the structure as drawn.

Take `CO[C@H]1[C@@H](O)[C@H](n2ccc(=O)[nH]c2=O)O[C@@H]1[C@H](C#N)O[C@H]1OC(C(=O)N[C@H]2CCCCNC2=O)=C[C@H](O)[C@@H]1O`: the IC50 in test [1] amounted to 12 µM. The MIC50 was greater than 32 µg/mL in test [2], greater than 32 µg/mL in test [3], greater than 32 µg/mL in test [4] and greater than 64 µg/mL in test [5].
Regarding `CO[C@H]1[C@@H](O)[C@H](n2ccc(=O)[nH]c2=O)O[C@@H]1[C@H](O[C@H]1OC(C(=O)N[C@H]2CCCCNC2=O)=C[C@H](O)[C@@H]1O)C(N)=O`, the IC50 in test [1] is 10 µM. The MIC50 is greater than 32 µg/mL in test [2], greater than 32 µg/mL in test [3], greater than 32 µg/mL in test [4] and no less than 64 µg/mL in test [5].
On to `O=C(N[C@H]1CCCCNC1=O)C1=C[C@H](O)[C@H](O)[C@@H](OC[C@H]2O[C@@H](n3ccc(=O)[nH]c3=O)[C@H](O)[C@@H]2O)O1`, for which the IC50 in test [1] was 76 µM. Besides, the MIC50 in test [2] was greater than 32 µg/mL; in test [3] it was greater than 32 µg/mL; in test [4], greater than 32 µg/mL; in test [5] it was 32 µg/mL (≈ 62.4 µM).
`NC(=O)[C@H](O[C@H]1OC(C(=O)N[C@H]2CCCCNC2=O)=C[C@H](O)[C@@H]1O)[C@H]1O[C@@H](n2ccc(=O)[nH]c2=O)[C@H](O)[C@@H]1O`: in test [1], the IC50 was determined as 2 µM. Moreover, the MIC50 in test [2] is greater than 32 µg/mL; in test [3] it was 32 µg/mL (≈ 57.6 µM); in test [4] it was 16 µg/mL (≈ 28.8 µM); in test [5], no less than 64 µg/mL.
As for `CO[C@H]1[C@@H](O)[C@H](n2ccc(=O)[nH]c2=O)O[C@@H]1[C@@H](O[C@H]1OC(C(=O)N[C@H]2CCCCNC2=O)=C[C@H](O)[C@@H]1O)C(N)=O` [CAPURAMYCIN], the values for the IC50 in test [6] and in test [1] were 0.01 µg/mL (≈ 0.0176 µM) and 0.33 µM, respectively. In test [7], 6.25 µg/mL (≈ 11 µM) was the least that counted as inhibitory (MIC). Moreover, the MIC50 in test [2] is 32 µg/mL (≈ 56.2 µM); in test [3] it was 32 µg/mL (≈ 56.2 µM); in test [4] it was 8 µg/mL (≈ 14 µM); in test [5] it was 64 µg/mL (≈ 112 µM).

For orientation: IC50 means the point on the concentration scale where inhibition reaches its midpoint. What is called MIC50 is an inhibitory concentration at the 50% level, which refers to growth in some studies and to a panel of isolates in others. High values mean lower susceptibility, low ones higher susceptibility. Usually MIC stands for the lowest concentration that inhibits growth of the organism. A lower MIC goes with inhibition by little substance.

Source of the values: ChEMBL document CHEMBL5214959, “Synthesis of capuramycin and its analogues via a Ferrier-type I reaction and their biological evaluation” (Bioorg Med Chem, 2022).
